According to ChEMBL document CHEMBL1201862, “PubChem BioAssay data set” (2004):
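Five compound concentrations were applied to cells in 96-well plates for 48 hours; endpoints were derived by simple linear interpolation of the resulting dose-response curve. The concentration for 50% growth inhibition is given as GI50.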 Activity calls are given as the source filed them. Rule as the data show it: active = GI50 up to about 1.1 µM and inactive = higher.

What was measured:
Test in all cases: NCI anticancer screen, dose series, 48 h
SF-539 = tested on: SF-539
SNB-75 = tested on: SNB-75
TK-10 = tested on: TK-10
HT-29 = tested on: HT-29
MOLT-4 = tested on: MOLT-4
COLO 205 = tested on: COLO 205
M19-MEL = tested on: M19-MEL
ACHN = tested on: ACHN
SK-OV-3 = tested on: SK-OV-3
KM12 = tested on: KM12
IGROV-1 = tested on: IGROV-1
HOP-92 = tested on: HOP-92
CCRF-CEM = tested on: CCRF-CEM
A498 = tested on: A498
NCI-H522 = tested on: NCI-H522
EKVX = tested on: EKVX
HCC 2998 = tested on: HCC 2998
786-0 = tested on: 786-0
NCI/ADR-RES = tested on: NCI/ADR-RES
RXF 393 = tested on: RXF 393

Measured: GI50

C=CCN1C(N)=C(C(N)=O)S/C1=C1/SC(=S)N(c2ccc(C)cc2)C1=O
inactive: SF-539 > 100 µM | SNB-75 12.6 µM | TK-10 > 100 µM | HT-29 > 100 µM | MOLT-4 > 100 µM | COLO 205 > 100 µM | M19-MEL > 100 µM | ACHN > 100 µM | SK-OV-3 > 100 µM | KM12 > 100 µM | IGROV-1 > 100 µM | HOP-92 > 100 µM | CCRF-CEM > 100 µM | A498 3.65 µM | NCI-H522 > 100 µM

COc1ccc(CNc2nc3cc(C(F)(F)F)ccc3nc2C)cc1OC
inactive: SF-539 29.2 µM | SNB-75 18.5 µM | TK-10 24.3 µM | EKVX 20.2 µM | HCC 2998 17.9 µM | HT-29 39.9 µM | MOLT-4 17.3 µM | COLO 205 32.9 µM | M19-MEL 32.8 µM | 786-0 22 µM | SK-OV-3 36.7 µM | KM12 23.7 µM | IGROV-1 31 µM | CCRF-CEM 31.9 µM | A498 24.3 µM | NCI-H522 21.9 µM

O=C1C=C[C@@H](COC2OC(CO)C(O)C(O)C2O)O1 (stereo partly specified)
inactive: SF-539 5.6 µM | SNB-75 14.9 µM | EKVX 20.4 µM | HCC 2998 40 µM | HT-29 5.86 µM | MOLT-4 4.39 µM | COLO 205 6.98 µM | M19-MEL 12.8 µM | SK-OV-3 73.6 µM | KM12 4.95 µM | IGROV-1 27.6 µM | NCI/ADR-RES 4.38 µM | HOP-92 20.5 µM | CCRF-CEM 1.36 µM | A498 16.1 µM | NCI-H522 5.14 µM

Cn1cc(C(=O)/C(Cl)=C(\Cl)C(=O)O)c2ccccc21
inactive: SF-539 > 100 µM | SNB-75 > 100 µM | TK-10 > 100 µM | EKVX > 100 µM | HCC 2998 > 100 µM | HT-29 > 100 µM | MOLT-4 > 100 µM | M19-MEL > 100 µM | ACHN > 100 µM | 786-0 > 100 µM | SK-OV-3 > 100 µM | KM12 > 100 µM | IGROV-1 > 100 µM | RXF 393 > 100 µM | CCRF-CEM > 100 µM | A498 > 100 µM

Cc1c2ccnc(C(F)(F)F)c2cc2c1[nH]c1ccccc12
inactive: SF-539 99.1 µM | SNB-75 64 µM | EKVX > 125 µM | HCC 2998 > 125 µM | HT-29 > 125 µM | MOLT-4 85.1 µM | COLO 205 > 125 µM | M19-MEL > 125 µM | SK-OV-3 36.3 µM | KM12 121 µM | IGROV-1 > 125 µM | NCI/ADR-RES > 125 µM | HOP-92 8.63 µM | RXF 393 16.6 µM | CCRF-CEM > 125 µM | A498 11.4 µM | NCI-H522 > 125 µM

COc1cc2nc(-c3cccc(N(C)C)c3)cc(O)c2cc1OC
inactive: SF-539 2.66 µM | TK-10 > 100 µM | EKVX 16.5 µM | HCC 2998 2.39 µM | HT-29 3.2 µM | MOLT-4 5.19 µM | COLO 205 3.85 µM | M19-MEL 5.55 µM | ACHN 14.5 µM | 786-0 3.57 µM | SK-OV-3 3.7 µM | KM12 3.31 µM | IGROV-1 7.11 µM | HOP-92 > 100 µM | RXF 393 2.21 µM | CCRF-CEM 3.87 µM | A498 6.03 µM | NCI-H522 2.81 µM

COc1cc(Nc2c3ccccc3nc3ccccc23)ccc1NS(C)(=O)=O
inactive: SF-539 4.41 µM | SNB-75 7.46 µM | EKVX 10 µM | HCC 2998 14.2 µM | HT-29 3.34 µM | MOLT-4 40.7 µM | COLO 205 3.48 µM | M19-MEL 5.93 µM | ACHN 4.11 µM | SK-OV-3 14.7 µM | KM12 6.97 µM | IGROV-1 10.4 µM | CCRF-CEM 28.8 µM | A498 6.31 µM | NCI-H522 3.42 µM

CC(O)C(O)C(N)CC=O (stereo unspecified)
inactive: SF-539 > 500 µM | SNB-75 > 500 µM | EKVX 491 µM | HCC 2998 > 500 µM | HT-29 > 500 µM | MOLT-4 > 500 µM | COLO 205 > 500 µM | M19-MEL > 500 µM | SK-OV-3 > 500 µM | KM12 > 500 µM | IGROV-1 > 500 µM | NCI/ADR-RES > 500 µM | HOP-92 > 500 µM | RXF 393 > 500 µM | CCRF-CEM > 500 µM | A498 36.1 µM | NCI-H522 79.3 µM

CC1(C)CCCC2(C)[C@@H]1CC[C@]13C[C@](C)(CC[C@@H]21)[C@@H]3CO (stereo partly specified)
inactive: SF-539 > 100 µM | SNB-75 46.7 µM | TK-10 > 100 µM | HCC 2998 > 100 µM | HT-29 > 100 µM | MOLT-4 > 100 µM | COLO 205 > 100 µM | M19-MEL > 100 µM | ACHN > 100 µM | SK-OV-3 > 100 µM | KM12 > 100 µM | IGROV-1 > 100 µM | HOP-92 > 100 µM | RXF 393 98.9 µM | CCRF-CEM > 100 µM | NCI-H522 > 100 µM

CC(C)(C)CI
inactive: SF-539 88.5 µM | SNB-75 26.4 µM | TK-10 > 100 µM | EKVX 61.5 µM | HCC 2998 19.4 µM | HT-29 > 10 µM | MOLT-4 37.2 µM | COLO 205 22.2 µM | M19-MEL 23 µM | ACHN 20.7 µM | SK-OV-3 48.4 µM | KM12 25.7 µM | IGROV-1 > 100 µM | HOP-92 26.2 µM | RXF 393 18.4 µM | CCRF-CEM 21.4 µM | A498 41.6 µM | NCI-H522 17.5 µM

O=C(O)c1ccc([Se][Se]c2ccc(C(=O)O)cc2)cc1
inactive: SF-539 36.1 µM | SNB-75 33.9 µM | TK-10 22.7 µM | EKVX 23.6 µM | HCC 2998 35.9 µM | COLO 205 32.9 µM | M19-MEL 19.5 µM | 786-0 34 µM | KM12 29 µM | IGROV-1 30.4 µM | RXF 393 21.2 µM | NCI-H522 23.6 µM

CC(C)OP(=O)(OC(C)C)/C(=N/Nc1ccc([N+](=O)[O-])cc1)NCCO
inactive: SF-539 > 100 µM | SNB-75 > 100 µM | TK-10 > 100 µM | EKVX > 100 µM | HCC 2998 > 100 µM | MOLT-4 48.9 µM | COLO 205 > 100 µM | M19-MEL > 100 µM | ACHN 54.1 µM | 786-0 > 100 µM | KM12 > 100 µM | HOP-92 64.1 µM | CCRF-CEM > 100 µM | A498 3.15 µM | NCI-H522 > 100 µM
